Assay [1] has as its system TCRβ+CD8+ T cells and NK1.1+ NKp46+ NK cells. As to the kind of experiment: PD effect of CEA-IL2v in blood, flow cytometry of CD8 T cells and NK cells (Example 5). In kind it is in vivo. The conditions noted are these: mice of Example 4; cathepsin S inhibitor 40 mg/kg/day vs vehicle. As for the experimental part: (§1) 15-week-old mice C57BL/6-Tg (hIgG1,k,l) and C57BL/6 wild type mixed gender were purchased from Taconic (Denmark) and housed at the animal facilities in room with air-conditioned under a 12 hours light/dark cycle in macrolon boxes with enriched environment and free access to water and food. 7×10 μg of CEA-IL2v (Batch no GLI0144-01) were injected at day 0, 4, 7, 11, 14, 18 and 21 for the primary response, and at day 49, 53, 56 and 60 for the memory response. The CEA-112v injections were done subcutaneously in the right flank or the left flank alternatively. The dosage of (2S,4R)-4-[4-(1-methyl-1H-pyrazol-4-yl)-2-trifluoromethyl-benzenesulfonyl]-1-(1-trifluoromethyl-cyclopropanecarbonyl)-pyrrolidine-2-carboxylic acid (1-cyano-cyclopropyl)-amide consumption was 40 mg/kg/day. […]
From Example 4, 50 μl of lithium heparin whole blood were transferred into a 5 ml polystyrene round-bottom tubes (BD Falcon, Cat. no 352058) and 2 ml of freshly prepared 1× Pharm Lyse™ lysing buffer (BD Bioscience, Cat. no 555899) with UltraPur™ distilled water (Invitrogen, Cat. no 10977-035) were added. […] Data were acquired with the BD FACSDiva software v8.0 on BD LSRFortessa™ cytometer and analyzed with FlowJo™ V10.
A general note: Flow cytometry measures light scatter and fluorescence of single cells or particles in a stream.

For assay [2], the system named is CEA-specific IgG response. As to the kind of experiment: ADA against CEA-IL2v in wild-type mice over time, ELISA (Example 4, 63 days). It counts as in vivo, C57BL/6 wild type mice. The conditions noted are these: 40 mg/kg/day via food admix, primary and memory response, samples to day 63, vs vehicle. The protocol:
as §1
Nunc Maxisorp flat-bottom 96 well ELISA plates were coated with 100 μl per well of Humira or CEA-PGLALA respectively at 5 μg/mL in NaHCO3100 mM buffer overnight at +4° C. […] 100 μl of substrate P-nitrophenyl phosphate ready to use (Life Technologies, Cat no 002212) were added per well and after 10 min incubation at room temperature, the OD at 405 nm was read as an end-point measurement with a Versamax ELISA reader.
For orientation: In an ELISA, binding on a coated surface is turned into a signal by an enzyme label.

Molecules are shown by their SMILES.

The results in this text go back to patent US12419862B2, “Use of a cathepsin s inhibitor against the formation of anti-drug antibodies” (Hoffmann-La Roche Inc., priority 2018, dated 2025).

`Cn1cc(-c2ccc(S(=O)(=O)[C@@H]3C[C@@H](C(=O)NC4(C#N)CC4)N(C(=O)C4(C(F)(F)F)CC4)C3)c(C(F)(F)F)c2)cn1` [cathepsin S inhibitor, (2S,4R)-4-[4-(1-methyl-1H-pyrazol-4-yl)-2-trifluoromethyl-benzenesulfonyl]-1-(1-trifluoromethyl-cyclopropanecarbonyl)-pyrrolidine-2-carboxylic acid (1-cyano-cyclopropyl)-amide]: the “Effect on CEA-IL2v pharmacology (percentages of CD8 T cells and NK cells in blood)” value in assay [1] is recorded as “CEA-112v pharmacology is preserved”. Moreover, the “ADA to CEA-IL2v (CEA-specific IgG) over time” value in assay [2] is reported as “reduces its levels in wild-type mice”.
